Experimental findings from ChEMBL document CHEMBL1201862, “PubChem BioAssay data set” (2004) are described below.

SMILES strings stand for the structures. The source made the active and inactive calls. Some results are limits rather than exact numbers.

A short description of test [1]: P. falciparum Dd2 growth inhibitors, dose response, SYBR Green, dry powder samples, set 9 (AID 1159568). It counts as functional, cell-based.
Test [2] is described as follows: P. falciparum Dd2 growth inhibitors, dose response, SYBR Green, cherry-picked samples (AID 1159567). It counts as functional, cell-based.
Test [3] in a line: Plasmodium falciparum Dd2 Sybr green parasite growth Measured in Cell-Based and Microorganism Combination System Using Plate Reader - 2153-01_Inhibitor_Dose_DryPowder_Activity_Set3. Format: functional.
Test [4] in a line: P. falciparum 3D7-ScDHODH growth inhibitors, dose response, SYBR Green, dry powder samples (AID 1159570).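 Further: parasite growth measured after 72 hours of compound exposure.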 Format: functional, cell-based.
A short description of test [5]: P. falciparum Dd2 growth inhibitors, dose response, SYBR Green, dry powder samples (AID 1159566).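 Further: potency for growth inhibition with lower SYBR green DNA signal.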 It counts as functional, cell-based.
The nature of test [6]: P. falciparum ATP4 D1247Y mutant growth inhibitors, dose response, NITD609-resistant line, SYBR Green, dry powder (AID 1159571).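 Further: parasites synchronized at ring stage by sorbitol before testing.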 It counts as functional, cell-based.
A short description of test [7]: HepG2 cell cytotoxicity, dose response, cytotoxicity control, plate reader, dry powder samples (AID 1159569).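 Further: inhibitor potency with signal falling toward the positive control level.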 It counts as functional, cell-based.
The nature of test [8]: HepG2 cell cytotoxicity, dose response, cytotoxicity control, ATP luminescence, dry powder, set 2 (AID 743129). It counts as functional, cell-based.
Test [9] is described as follows: A549 cell cytotoxicity, dose response, cytotoxicity control, CellTiter-Glo luminescence, dry powder, set 5 (AID 743158). It counts as functional, cell-based. (Cellular ATP, detected with luciferase, serves as a proxy for viable cell number.)
The nature of test [10]: IOSE-T80 ovarian epithelial cell cytotoxicity, dose response, cytotoxicity control for PAX8 inhibitor project, plate reader, dry powder samples (AID 743045). It counts as functional, cell-based.
Test [11] is described as follows: cells. It counts as functional, cell-based.
A short description of test [12]: control 3'UTR Renilla luciferase suppression, dose response, counter-screen for Shn3 inhibitor project, cell-based, Clone20-Shn3RL, cherry-picked (AID 624133). Format: functional.
The nature of test [13]: NIH:OVCAR-3 ovarian cancer cell cytotoxicity, dose response, PAX8 inhibitor project, plate reader, dry powder samples (AID 743044). It counts as functional, cell-based.
Test [14] is described as follows: cytotoxicity in OV-90 ovarian cancer cells, dose response, PAX8 inhibitor project, cell-based, plate reader, dry powder, SA8 (AID 743149). It counts as functional.
Test [15] can be described thus: PAX5 activity inhibitors, dose response, selectivity assay for PAX8 inhibitor project, cell-based, plate reader, dry powder samples (AID 743047).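 Further: HEK293 cells carrying a Pax5 driven CD19 promoter luciferase reporter; potency of inhibitors that lower reporter luminescence.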 Format: functional.
The test system of another test is INS1. In words: beta cell apoptosis inhibitors, cytokine rescue, dose response, luminescence, retest (AID 449756).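 Further: cell death triggered by IL-1 beta plus TNF-alpha plus IFN-gamma mixture; protective hits raise ATP signal compared with cytokine alone wells.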 It counts as functional, cell-based. Conditions: Rattus norvegicus, INS1.
A short description of test [16]: cytotoxicity toward NIH3T3 fibroblasts, dose response, counter-screen, cell-based, ATP luminescence, mouse fibroblasts (AID 2010).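 Further: cells exposed to compound for about 90 hours before reading.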 Format: functional.
The nature of test [17]: HEK293T cytotoxicity, dose response, cytotoxicity control for miR-122 modulator project, cell-based, inhibitor set, cherry-pick, set 2 (AID 720697). It counts as functional.
A short description of test [18]: A2780 ovarian cancer cell cytotoxicity, dose response, cytotoxicity control, plate reader, dry powder samples (AID 743046). It counts as functional, cell-based.
A short description of test [19]: cytotoxicity in COV362 ovarian cancer cells, dose response, cytotoxicity control for PAX8 inhibitor project, cell-based, plate reader, dry powder, SA12 (AID 743144). It counts as functional.
Test [20] can be described thus: cytotoxicity dependent on PAX8, dose response, cell-based, plate reader, dry powder (AID 743049). It counts as functional.
Test [21] is described as follows: PAX2 cell-based inhibition, dose response, selectivity assay for PAX8 inhibitor project, plate reader, dry powder samples (AID 743048).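 Further: HEK293 cells carrying a WT1 promoter luciferase reporter driven by expressed Pax2; potency is for inhibition of Pax2 driven reporter signal.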 Format: functional.
Test [22] can be described thus: HepG2 cell cytotoxicity, dose response, cytotoxicity control for Shn3 inhibitor project, CellTiter-Glo, cherry-picked (AID 624134). Format: functional, cell-based.
Test [23] is described as follows: HEK293T cytotoxicity, dose response, cytotoxicity control for miR-122 modulator project, cell-based, activator set, cherry-pick (AID 720690).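 Further: HEK293T human cells scored for general mammalian cytotoxicity.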 It counts as functional.
Test [24] concerns the target Heat shock protein HSP 90-alpha (Homo sapiens, UniProt P07900). Format: functional, organism-based.
Test [25] is described as follows: human group III sPLA2 inhibitors, dose response, biochemical, QFRET, IC50 (AID 743457).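 Further: green fluorescence rise as the enzyme cleaves BODIPY PC-A2 in liposomes; potency for inhibition of the enzyme.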
Test [26] in a line: Shn3 3'UTR reporter inhibitors, dose response, cell-based, Clone20 osteoblasts, firefly luciferase, cherry-picked (AID 624132).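 Further: firefly luciferase luminescence from reporter carrying the Shn3 3'UTR in osteoblasts.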 It counts as functional.
Test [27] can be described thus: IGROV1 ovarian cancer cell cytotoxicity, dose response, PAX8 inhibitor project, plate reader, dry powder samples (AID 743043). It counts as functional, cell-based. Conditions: IGROV-1.
Test [28] is described as follows: cytotoxicity in COV434 cells, dose response, cytotoxicity control for PAX8 inhibitor project, cell-based, plate reader, dry powder, SA7 (AID 743145). Format: functional.
Test [29] can be described thus: cells. Format: functional, cell-based. The source holds these as a separate data set.
The nature of test [30]: cytotoxicity in OVCAR4 cells, dose response, cytotoxicity control for PAX8 inhibitor project, cell-based, plate reader, dry powder, SA11 (AID 743150). Format: functional. As to conditions: OVCAR-4.
Test [31] in a line: inhibitors of intracellular T. cruzi replication, confirmation, NIH3T3 host cells, beta-gal luminescence (AID 2044).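 Further: intracellular parasites grown in NIH/3T3 mouse fibroblasts as host cells; luminescent beta-galactosidase reporter signal from transgenic T. cruzi replicating inside host cells; inhibitors lower the luminescence signal.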 It counts as functional, cell-based.
The target of the next test is Paired box protein Pax-8 (Homo sapiens, UniProt Q06710). In words: inhibitors of PAX8-driven TPO luciferase reporter, dose response, RMG-I cells, cherry-pick (AID 687027).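 Further: luciferase reporter driven by Pax8 target thyroperoxidase promoter measured by SteadyGlo luminescence.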 Format: functional, cell-based.
Paired box protein Pax-8, sequence (Q06710 whole entry): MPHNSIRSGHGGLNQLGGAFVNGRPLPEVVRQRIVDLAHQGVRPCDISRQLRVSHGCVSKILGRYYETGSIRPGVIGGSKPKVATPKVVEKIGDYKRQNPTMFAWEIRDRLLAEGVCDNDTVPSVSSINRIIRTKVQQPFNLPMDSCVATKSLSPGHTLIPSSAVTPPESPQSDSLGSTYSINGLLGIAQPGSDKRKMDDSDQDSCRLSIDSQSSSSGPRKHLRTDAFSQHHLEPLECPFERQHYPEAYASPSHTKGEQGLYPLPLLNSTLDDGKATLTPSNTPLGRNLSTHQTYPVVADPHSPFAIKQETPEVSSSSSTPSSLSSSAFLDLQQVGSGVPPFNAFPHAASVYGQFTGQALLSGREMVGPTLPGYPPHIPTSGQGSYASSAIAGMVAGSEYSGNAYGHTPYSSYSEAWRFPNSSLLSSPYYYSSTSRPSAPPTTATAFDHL
Test [32] is described as follows: HeLa 4N DNA content increase, dose response, cell-based, IC50 (AID 1117351). It counts as functional.
Test [33] can be described thus: HeLa 2N DNA content increase, dose response, cell-based, IC50 (AID 1117349). It counts as functional.
The target in the next test is Phospholipase D2 (Homo sapiens, UniProt O14939). In words: PLD2 Cellular Concentration Response Study. Format: functional.
Phospholipase D2, sequence (O14939 whole entry): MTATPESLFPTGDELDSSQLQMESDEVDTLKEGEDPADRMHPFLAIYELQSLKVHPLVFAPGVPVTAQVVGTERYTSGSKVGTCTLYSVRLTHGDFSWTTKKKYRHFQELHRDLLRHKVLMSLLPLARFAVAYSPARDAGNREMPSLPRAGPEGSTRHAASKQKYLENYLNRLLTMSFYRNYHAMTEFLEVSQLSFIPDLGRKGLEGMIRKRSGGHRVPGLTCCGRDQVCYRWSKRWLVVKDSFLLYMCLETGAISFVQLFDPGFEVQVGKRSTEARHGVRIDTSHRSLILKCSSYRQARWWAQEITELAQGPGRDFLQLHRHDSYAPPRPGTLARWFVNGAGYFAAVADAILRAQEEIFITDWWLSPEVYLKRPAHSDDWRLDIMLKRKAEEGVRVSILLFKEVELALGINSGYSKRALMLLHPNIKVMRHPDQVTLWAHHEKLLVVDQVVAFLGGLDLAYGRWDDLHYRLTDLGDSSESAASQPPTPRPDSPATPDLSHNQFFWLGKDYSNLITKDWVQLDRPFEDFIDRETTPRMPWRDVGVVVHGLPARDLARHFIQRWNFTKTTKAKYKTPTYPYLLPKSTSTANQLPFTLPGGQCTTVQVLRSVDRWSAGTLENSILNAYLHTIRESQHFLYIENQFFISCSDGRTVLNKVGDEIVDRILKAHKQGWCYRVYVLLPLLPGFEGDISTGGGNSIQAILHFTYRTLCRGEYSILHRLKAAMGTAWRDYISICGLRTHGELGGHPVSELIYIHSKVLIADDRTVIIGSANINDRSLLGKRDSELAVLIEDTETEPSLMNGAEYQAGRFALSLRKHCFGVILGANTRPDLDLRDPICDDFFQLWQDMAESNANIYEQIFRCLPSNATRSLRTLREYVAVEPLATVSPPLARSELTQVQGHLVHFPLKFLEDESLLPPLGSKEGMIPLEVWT
A further test addresses Phospholipase D1 (Homo sapiens, UniProt Q13393). Description: PLD1 Cellular Concentration Response Study. It counts as functional.

A word on the AC50: it is the concentration giving half of the maximal activity seen. In general, EC50 refers to the concentration at which the effect is half-maximal. Usually IC50 stands for the concentration that gives 50% inhibition.

Phospholipase D1, sequence (Q13393 whole entry): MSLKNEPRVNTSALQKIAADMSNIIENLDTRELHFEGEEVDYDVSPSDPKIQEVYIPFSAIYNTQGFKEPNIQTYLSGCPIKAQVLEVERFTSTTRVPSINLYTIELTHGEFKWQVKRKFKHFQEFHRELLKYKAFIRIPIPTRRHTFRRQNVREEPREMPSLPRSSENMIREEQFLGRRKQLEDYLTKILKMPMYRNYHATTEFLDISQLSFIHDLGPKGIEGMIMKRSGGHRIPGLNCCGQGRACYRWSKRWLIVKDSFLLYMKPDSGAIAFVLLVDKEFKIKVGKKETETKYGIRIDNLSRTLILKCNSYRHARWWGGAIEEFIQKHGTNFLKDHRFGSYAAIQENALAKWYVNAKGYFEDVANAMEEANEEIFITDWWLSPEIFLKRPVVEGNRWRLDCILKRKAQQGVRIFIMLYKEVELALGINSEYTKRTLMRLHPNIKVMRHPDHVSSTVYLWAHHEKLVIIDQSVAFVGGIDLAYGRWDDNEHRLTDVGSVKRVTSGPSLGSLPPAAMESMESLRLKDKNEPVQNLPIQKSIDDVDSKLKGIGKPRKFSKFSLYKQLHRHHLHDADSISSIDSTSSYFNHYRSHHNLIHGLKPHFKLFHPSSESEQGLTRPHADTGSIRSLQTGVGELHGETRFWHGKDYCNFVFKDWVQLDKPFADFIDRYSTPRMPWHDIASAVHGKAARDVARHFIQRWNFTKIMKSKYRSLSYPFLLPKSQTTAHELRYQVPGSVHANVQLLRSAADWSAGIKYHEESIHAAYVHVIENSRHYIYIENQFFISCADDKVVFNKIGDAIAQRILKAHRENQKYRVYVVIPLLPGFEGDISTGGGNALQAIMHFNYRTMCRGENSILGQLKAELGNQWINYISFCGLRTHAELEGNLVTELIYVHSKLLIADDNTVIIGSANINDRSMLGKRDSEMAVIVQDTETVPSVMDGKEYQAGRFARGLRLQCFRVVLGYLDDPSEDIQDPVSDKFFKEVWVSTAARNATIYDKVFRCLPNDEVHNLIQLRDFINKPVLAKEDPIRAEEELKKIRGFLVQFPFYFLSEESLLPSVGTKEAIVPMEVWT

In the case of `C[C@H]1CCCCO[C@H](CN(C)S(=O)(=O)c2ccccc2)[C@@H](C)CN([C@@H](C)CO)C(=O)c2cc(NC(=O)Nc3ccc4c(c3)OCO4)ccc2O1`, in [1], the AC50 was 2.22 µM (active).
Consider `COc1ccccc1-c1ccc([C@@H]2[C@@H](C#N)N[C@@H]2CO)cc1`, for which the AC50 in test [2] is 3.02 µM (active); in test [3] it was 6.32 µM (active); in test [4] it was 3.22 µM (active); in [5], 0.907 µM (active); in test [6] it was 0.946 µM (active); in test [7], > 100 µM (inactive).
For `CCOC(=O)c1c(-c2ccc(C(C)(C)C)cc2)csc1NC(=O)CN1CCN(C)CC1`, the AC50 in test [8] was 16.4 µM (active); in [9], 21.4 µM (active).
Regarding `CCCCC(=O)NC(c1ccccc1OC)c1ccc2cccnc2c1O` (configuration not stated), the AC50 was 5.77 µM (active) in test [10]; 3.18 µM (active) in test [12]; 4.87 µM (active) in [13]; 10.7 µM (active) in test [14]; 3.51 µM (active) in [15]; 0.718 µM (active) with INS1. Further, the AC50 is 2.22 µM (active) in test [17]; 8.16 µM (active) in [18]; 7.92 µM (active) in test [19]; 20.1 µM (active) in [20]; 3.22 µM (active) in test [21]; 2.55 µM (active) in test [22]. Further, the AC50 was 3.36 µM (active) in test [23]; 4.38 µM (active) in [24]; 1.19 µM (active) in test [26]; 7.55 µM (active) in test [27]; 6.89 µM (active) in [28]; 16.3 µM (active) in [30]. Moreover, the AC50 at Paired box protein Pax-8 was 2.44 µM (active). Besides, the 50% effective concentration (EC50) was 6.29 µM (active) in the test “cells [11]”, 1.27 µM (active) in test [16], > 350 µM (not active) in “cells [29]” and 0.435 µM (active) in test [31]. Moreover, the IC50 in [25] is > 122 µM (inactive).
With `CC[C@]1(O)C[C@H]2CN(CCc3c([nH]c4ccccc34)[C@@](C(=O)OC)(c3cc4c(cc3OC)N(C=O)[C@H]3[C@@](O)(C(=O)OC)[C@H](OC(C)=O)[C@]5(CC)C=CCN6CC[C@]43[C@@H]65)C2)C1` [VINCRISTINE], the IC50 was 0.0059 µM (active) in test [32] and 0.0062 µM (active) in [33].
With `O=C(NCCN1CCC2(CC1)C(=O)NCN2Cc1ccccc1)c1ccc2ccccc2c1`, the values for the IC50 on Phospholipase D2 and at Phospholipase D1 were 0.89 µM (active) and 8.26 µM (active), respectively.
